pIC50: −log10 of the molar value.
Key:
B16-F10 = assay: Cytotoxicity against mouse B16-F10 cells assessed as reduction in cell viability incubated for 72 hrs by Alamar blue assay; type: functional, cell-based; details: B16-F10, 72 h
HepG2 = assay: Cytotoxicity against human HepG2 cells assessed as reduction in cell viability incubated for 72 hrs by Alamar blue assay; type: functional, cell-based; details: HepG2, 72 h
HL-60 = assay: Cytotoxicity against human HL-60 cells assessed as reduction in cell viability incubated for 72 hrs by Alamar blue assay; type: functional, cell-based; details: HL-60, 72 h
K562 = assay: Cytotoxicity against human K562 cells assessed as reduction in cell viability incubated for 72 hrs by Alamar blue assay; type: functional, cell-based; details: K562, 72 h
[1] = Cytotoxicity against human PBMC cells assessed as reduction in cell viability incubated for 72 hrs by Alamar blue assay; type: cell-based

Structure (SMILES)	pIC50 (B16-F10)	pIC50 (HepG2)	pIC50 (HL-60)	pIC50 (K562)	pIC50 [1]
COc1cccc2c1C(=O)c1c(O)c3c(c(O)c1C2=O)C[C@@](O)(C(=O)CO)C[C@@H]3O[C@H]1C[C@H](N)[C@H](O)[C@H](C)O1 [DOXORUBICIN]	5.64	6.70	6.10	6.15	–
O=C1c2ccccc2-c2c3c(cc4ccnc1c24)OCO3 [LIRIODENINE]	< 5.00	5.08	5.26	5.30	4.46

Reference: ChEMBL document CHEMBL4715739, “7,7-Dimethylaporphine and Other Alkaloids from the Bark of Guatteria friesiana” (J Nat Prod, 2016)
